# From ChEMBL document CHEMBL3407455, “Discovery of highly potent, selective, and efficacious small molecule inhibitors of ERK1/2” (J Med Chem, 2015)
# Columns and labels:
# in vivo [1] = conditions: CD-1, mouse, plasma, po, 5 mg/kg
# in vivo [2] = conditions: CD-1, mouse, iv, 1 mg/kg
# in vitro = conditions: dog, MDCK
# in vivo [3] = conditions: CD-1, mouse, po, 5 mg/kg
# in vivo [4] = conditions: cynomolgus monkey, po, 5 mg/kg
# in vivo [5] = conditions: nude, mouse, plasma, po, 100 mg/kg
# in vivo [6] = conditions: rat, po, 5 mg/kg
# in vivo [7] = conditions: nude, mouse, po, 100 mg/kg
# in vivo [8] = conditions: cynomolgus monkey, po, 5 mg/kg; remark: listed apart in the source
# in vivo [9] = conditions: dog, po, 5 mg/kg
# in vivo [10] = conditions: nude, mouse, plasma, po, 30 mg/kg
# in vivo [11] = conditions: nude, mouse, po, 30 mg/kg
# in vivo [12] = conditions: nude, mouse, po, 100 mg/kg; remark: listed apart in the source
# in vivo [13] = conditions: nude, mouse, po, 150 mg/kg
# in vivo [14] = conditions: dog, po, 5 mg/kg; remark: listed apart in the source
# in vivo [15] = conditions: nude, mouse, po, 100 mg/kg; remark: listed apart in the source
# in vivo [16] = conditions: nude, mouse, po, 150 mg/kg; remark: listed apart in the source
# in vivo [17] = conditions: rat, iv, 1 mg/kg
# in vivo [18] = conditions: dog, po, 5 mg/kg; remark: listed apart in the source
# in vivo [19] = conditions: cynomolgus monkey, plasma, po, 5 mg/kg
# in vivo [20] = conditions: nude, mouse, iv, 1 mg/kg
# in vivo [21] = conditions: nude, mouse, po, 5 mg/kg
# in vivo [22] = conditions: rat, plasma, po, 5 mg/kg
# in vivo [23] = conditions: rat, po, 5 mg/kg; remark: listed apart in the source
# in vivo [24] = conditions: nude, mouse, po, 5 mg/kg; remark: listed apart in the source
# in vivo [25] = conditions: nude, mouse, plasma, po, 5 mg/kg
# in vivo [26] = conditions: cynomolgus monkey, iv, 2 mg/kg
# in vivo [27] = conditions: nude, mouse, po, 150 mg/kg; remark: listed apart in the source
# in vivo [28] = conditions: rat, po, 5 mg/kg; remark: listed apart in the source
# in vivo [29] = conditions: cynomolgus monkey, po, 5 mg/kg; remark: listed apart in the source
# in vivo [30] = conditions: nude, mouse, po, 30 mg/kg; remark: listed apart in the source
# in vivo [31] = conditions: nude, mouse, plasma, po, 150 mg/kg
# in vivo [32] = conditions: nude, mouse, po, 5 mg/kg; remark: listed apart in the source
# in vivo [33] = conditions: dog, plasma, po, 5 mg/kg
# in vivo [34] = conditions: dog, iv, 2 mg/kg
smiles,measurement,setting,value
O=c1cc(-c2ccnc(NC3CCOCC3)n2)ccn1[C@H](CO)c1cccc(F)c1,AUC,in vivo [1],1.72 µM·h
same,clearance,in vivo [2],39 mL/min/kg
same,Papp A→B,in vitro,5.5 ×10⁻⁶ cm/s
same,bioavailability,in vivo [3],36%
O=c1cc(-c2ccnc(NC3CCOCC3)n2)ccn1[C@H](CO)c1ccc(Cl)c(F)c1,half-life,in vivo [4],2.39 h
same,AUC,in vivo [5],129 µM·h
same,bioavailability,in vivo [6],44%
same,bioavailability,in vivo [7],139%
same,Cmax,in vivo [8],0.98 µM
same,Cmax,in vivo [9],2.91 µM
same,AUC,in vivo [10],46.8 µM·h
same,Cmax,in vivo [11],20.2 µM
same,Cmax,in vivo [12],38.9 µM
same,AUC,in vivo [1],3.05 µM·h
same,Cmax,in vivo [13],67.7 µM
same,half-life,in vivo [14],1.55 h
same,half-life,in vivo [15],1.71 h
same,bioavailability,in vivo [16],127%
same,clearance,in vivo [17],39 mL/min/kg
same,bioavailability,in vivo [18],46%
same,AUC,in vivo [19],3.3 µM·h
same,clearance,in vivo [2],33 mL/min/kg
same,clearance,in vivo [20],40 mL/min/kg
same,Cmax,in vivo [21],3.12 µM
same,AUC,in vivo [22],2.15 µM·h
same,half-life,in vivo [23],1.16 h
same,bioavailability,in vivo [24],139%
same,AUC,in vivo [25],5.4 µM·h
same,clearance,in vivo [26],12 mL/min/kg
same,half-life,in vivo [27],1.97 h
same,Cmax,in vivo [28],1.49 µM
same,bioavailability,in vivo [29],22%
same,Papp A→B,in vitro,11.3 ×10⁻⁶ cm/s
same,half-life,in vivo [30],2.33 h
same,AUC,in vivo [31],175 µM·h
same,half-life,in vivo [32],3.52 h
same,bioavailability,in vivo [3],66%
same,AUC,in vivo [33],4.87 µM·h
same,clearance,in vivo [34],18 mL/min/kg
O=c1cc(-c2ccnc(NC3CCOCC3)n2)ccn1[C@H](CO)c1cccc(Cl)c1,AUC,in vivo [1],0.59 µM·h
same,clearance,in vivo [2],114 mL/min/kg
same,Papp A→B,in vitro,8.5 ×10⁻⁶ cm/s
same,bioavailability,in vivo [3],38%
O=c1cc(-c2ccnc(NC3CCOCC3)n2)ccn1[C@H](CO)c1ccc(F)c(Cl)c1,AUC,in vivo [1],2.18 µM·h
same,clearance,in vivo [2],63 mL/min/kg
same,Papp A→B,in vitro,4.6 ×10⁻⁶ cm/s
same,bioavailability,in vivo [3],76%
